Results reported in PubChem BioAssay (NCI).
Several values for one entry are separate records, joined by “and”; a condition that tells them apart may be missing. Identical values can stand only once.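 Grown in 96-well plates, cells were treated for 48 hours with each compound at five concentrations. Insufficient inhibition: endpoint recorded as highest concentration tested. Here, GI50 denotes the concentration required for 50% inhibition of growth. TGI denotes the concentration required for complete inhibition of growth.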

Columns and labels:
Test in all cases: inhibition of tumour cell growth, NCI panel, 48 h
[1] = tested on: A498 renal
[2] = tested on: A549 NSCLC
[3] = tested on: HCT-15 colon
[4] = tested on: HT29 colon
[5] = tested on: M14 melanoma
[6] = tested on: NCI-H23 lung
[7] = tested on: OVCAR-4 ovarian
[8] = tested on: SK-OV-3 ovarian
[9] = tested on: TK-10 renal
[10] = tested on: UACC-257 melanoma

COc1ccc(C(=C(Cl)c2ccccc2)c2ccc(OC)cc2)cc1
TGI [1]: > 100 µM
TGI [2]: > 100 µM
TGI [3]: > 100 µM
TGI [4]: > 100 µM
TGI [5]: > 100 µM
TGI [6]: > 100 µM
TGI [7]: > 100 µM
TGI [8]: > 100 µM
TGI [9]: > 100 µM
TGI [10]: > 100 µM

Cc1ccc([N+](=O)[O-])cc1S(=O)(=O)Nc1ccc(C2=NNC(c3ccccc3)C2)cc1 (configuration not stated)
TGI [1]: 68.9 µM
TGI [2]: > 100 µM
TGI [3]: 62.1 µM
TGI [4]: > 100 µM
TGI [5]: 52.3 µM
TGI [6]: 89.8 µM
TGI [7]: 54.4 µM
TGI [8]: 58.8 µM
TGI [9]: > 100 µM
TGI [10]: 40.2 µM

C=CC(CCc1ccc(C(=O)OCC)cc1)c1c(N)nc(N)[nH]c1=O (configuration not stated)
TGI [1]: > 100 µM
TGI [2]: > 100 µM
TGI [3]: > 100 µM
TGI [4]: > 100 µM
TGI [5]: > 100 µM
TGI [6]: > 100 µM
TGI [7]: > 100 µM
TGI [8]: > 100 µM
TGI [9]: > 100 µM
TGI [10]: > 100 µM

Cc1cn(C2CC(N(O)Cc3ccccc3)C(CO[Si](C)(C)C(C)(C)C)O2)c(=O)[nH]c1=O (configuration not stated)
TGI [1]: 48.7 µM and 26.8 µM
GI50 [2]: 35.8 µM and 16.7 µM
TGI [2]: > 100 µM and 31.5 µM
TGI [3]: 96.6 µM
TGI [4]: 52.9 µM and 31.5 µM
TGI [5]: 39 µM and 30.6 µM
TGI [6]: 66.3 µM and 31.3 µM
TGI [7]: 83.6 µM and 31.5 µM
GI50 [8]: 62 µM and 16.5 µM
TGI [8]: > 100 µM and 30.1 µM
GI50 [9]: 37.8 µM and 18 µM
TGI [9]: > 100 µM and 31.8 µM
TGI [10]: 67.5 µM and 30 µM

O=C1CC(=Nc2ccc(Cl)cc2)C(c2ccccc2)N1c1ccccc1 (configuration not stated)
TGI [1]: > 100 µM
TGI [2]: > 100 µM
TGI [3]: > 100 µM
TGI [4]: 37.4 µM
TGI [5]: 33.8 µM
TGI [6]: 70.9 µM
TGI [7]: > 100 µM
TGI [8]: 51.6 µM
TGI [9]: > 100 µM
TGI [10]: > 100 µM

CSc1ncnc2c1ncn2C1CC(Oc2ccc(C)cc2)C(COc2ccc(C)cc2)O1 (configuration not stated)
TGI [1]: > 100 µM
TGI [2]: > 100 µM
TGI [3]: > 100 µM
TGI [4]: > 100 µM
TGI [5]: > 100 µM
TGI [6]: > 100 µM
TGI [7]: > 100 µM
TGI [8]: > 100 µM
TGI [9]: > 100 µM
TGI [10]: > 100 µM

CON(C)C(=O)CNC(=O)OCC1c2ccccc2-c2ccccc21
TGI [1]: > 100 µM
TGI [2]: > 100 µM
TGI [3]: > 100 µM
TGI [4]: > 100 µM
TGI [5]: > 100 µM
TGI [6]: > 100 µM
TGI [7]: > 100 µM
TGI [8]: > 100 µM
TGI [9]: > 100 µM
TGI [10]: > 100 µM

CSc1ccc2c(cc1=O)[C@@H](NC(=O)c1ccc(N)cc1)CCc1cc(O)c(O)c(O)c1-2
TGI [1]: > 100 µM
TGI [2]: 49.7 µM and 64.9 µM
TGI [3]: 26 µM and 42.4 µM
GI50 [4]: 13.3 µM and 2.57 µM
TGI [4]: 30.5 µM and 9.94 µM
GI50 [5]: 13.5 µM and 5.66 µM
TGI [5]: 27.9 µM and 36.5 µM
GI50 [6]: 22.3 µM and 10.4 µM
TGI [6]: 50.9 µM and 69.7 µM
TGI [7]: 34.1 µM and 54 µM
TGI [8]: > 100 µM
GI50 [9]: 24.2 µM and > 100 µM
TGI [9]: > 100 µM
TGI [10]: > 100 µM

CCCCN1C(=O)N(c2ccc(OCC)cc2)C2N(CCCC)C1C(C)(C)C2(C)C (configuration not stated)
TGI [1]: > 100 µM
TGI [2]: > 100 µM
TGI [3]: > 100 µM
TGI [4]: > 100 µM
TGI [5]: > 100 µM
TGI [6]: > 100 µM
TGI [7]: > 100 µM
TGI [8]: 57 µM
TGI [9]: 60.2 µM
TGI [10]: > 100 µM

COc1cc(C(=O)N(Cc2cccnc2)C(=S)N(Cc2cccnc2)C(=O)c2cc(OC)c(OC)c(OC)c2)cc(OC)c1OC
TGI [1]: 52.9 µM
TGI [2]: > 100 µM
TGI [3]: > 100 µM
TGI [4]: > 100 µM
TGI [5]: > 100 µM
TGI [6]: > 100 µM
TGI [7]: 43.5 µM
TGI [8]: > 100 µM
TGI [9]: > 100 µM
TGI [10]: > 100 µM

COc1cc(/C=C2/C[C@H]3[C@@H]4CC=C5C[C@@H](O)CC[C@]5(C)[C@H]4CC[C@]3(C)NC2=O)cc(OC)c1OC
TGI [1]: 55 µM
TGI [2]: > 100 µM
TGI [3]: > 59.5 µM
TGI [4]: > 80.7 µM
TGI [5]: > 100 µM
TGI [6]: > 62.7 µM
TGI [7]: > 86.5 µM
TGI [8]: > 92.3 µM
TGI [9]: > 82.1 µM
TGI [10]: > 71.5 µM

COc1cccc(-c2ccc3c4c2O[C@H]2C(=O)CC[C@@]5(O)[C@@H](C3)N(CC3CC3)CC[C@]425)c1
TGI [1]: 34.1 µM
TGI [2]: 35.5 µM
TGI [3]: 29.3 µM
TGI [4]: 24.6 µM
TGI [5]: 28.1 µM
TGI [6]: 64.8 µM
TGI [7]: 31.4 µM
TGI [8]: 34.5 µM
TGI [9]: 32.2 µM
TGI [10]: 43.2 µM
